This is an account of results in ChEMBL document CHEMBL3045653, “A novel amino acid substitution Ala-122-Tyr in ALS confers high-level and broad resistance across ALS-inhibiting herbicides” (Pest Manag Sci, 2012).

SMILES strings stand for the structures. Active and inactive are the calls of the source. No cut-off for these calls is given here. Bounds are passed on as bounds.

Test [1] concerns Raphanus raphanistrum. As to the kind of experiment: Resistance index, ratio of I50 for ALS Ala122Tyr mutant in ALS-herbicide-resistant Raphanus raphanistrum WARR30 (wild radish) expressing ALS Ala122Tyr mutant to I50 for ALS-herbicide-susceptible Raphanus raphanistrum (wild radish).
The subject of test [2] is Raphanus raphanistrum. As to the kind of experiment: Herbicidal activity against two to three leaf stage ALS-herbicide-resistant Raphanus raphanistrum WARR30 (wild radish) expressing ALS Ala122Tyr mutant assessed as reduction in dry weight of above-ground biomass measured 3 weeks after compound treatment. It is filed as functional.
In test [3] the target is T1, Acetolactate synthase (Raphanus raphanistrum, UniProt J7HAW4).
T1 sequence (J7HAW4 whole entry): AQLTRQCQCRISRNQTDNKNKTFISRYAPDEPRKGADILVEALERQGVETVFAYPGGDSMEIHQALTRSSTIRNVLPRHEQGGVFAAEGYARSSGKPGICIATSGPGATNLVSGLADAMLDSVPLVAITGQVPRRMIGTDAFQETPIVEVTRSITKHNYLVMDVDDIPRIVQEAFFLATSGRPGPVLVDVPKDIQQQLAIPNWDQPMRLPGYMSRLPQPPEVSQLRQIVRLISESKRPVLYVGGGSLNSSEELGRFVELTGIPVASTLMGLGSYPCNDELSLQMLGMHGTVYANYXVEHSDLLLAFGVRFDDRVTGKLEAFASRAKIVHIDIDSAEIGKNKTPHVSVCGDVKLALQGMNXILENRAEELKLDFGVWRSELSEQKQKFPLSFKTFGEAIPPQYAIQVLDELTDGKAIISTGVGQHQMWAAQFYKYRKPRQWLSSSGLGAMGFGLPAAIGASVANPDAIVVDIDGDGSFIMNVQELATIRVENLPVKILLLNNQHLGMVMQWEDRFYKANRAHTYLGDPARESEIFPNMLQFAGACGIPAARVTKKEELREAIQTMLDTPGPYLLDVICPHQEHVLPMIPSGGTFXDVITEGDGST
As to the kind of experiment: Inhibition of ALS in ALS-herbicide-susceptible Raphanus raphanistrum […] (wild radish). The settings on record: pooled result: one value given for 2 cell lines, strains, targets or settings; read-out: I50.

Test [4] relates to Raphanus raphanistrum. As to the kind of experiment: Herbicidal activity against two to three leaf stage ALS-herbicide-susceptible Raphanus raphanistrum WARR7 (wild radish) assessed as reduction in survival measured 3 weeks after compound treatment. It is filed as functional.
The test system of test [5] is Raphanus raphanistrum. As to the kind of experiment: Herbicidal activity against two to three leaf stage ALS-herbicide-susceptible Raphanus raphanistrum WARR7 (wild radish) assessed as reduction in dry weight of above-ground biomass measured 3 weeks after compound treatment. It is filed as functional.
Test [6] deals with Acetolactate synthase (Raphanus raphanistrum, UniProt J7HAW4, A122Y). Kind of test: Inhibition of ALS Ala122Tyr mutant in ALS-herbicide-resistant Raphanus raphanistrum WARR30 (wild radish) expressing ALS Ala122Tyr mutant. Conditions: read-out: I50.
For test [7], the system named is Raphanus raphanistrum. Kind of test: Herbicidal activity against two to three leaf stage ALS-herbicide-resistant Raphanus raphanistrum WARR30 (wild radish) expressing ALS Ala122Tyr mutant assessed as reduction in survival measured 3 weeks after compound treatment. It is filed as functional.
Test [8] relates to Raphanus raphanistrum. As to the kind of experiment: Herbicidal activity against two to three-leaf stage ALS-herbicide-susceptible Raphanus raphanistrum WARR7 (wild radish) assessed as reduction in survival at 62 g/ha measured 3 weeks after compound treatment. It is filed as functional, organism-based.
The test system of test [9] is Raphanus raphanistrum. Kind of test: Resistance index, ratio of GR50 for ALS-herbicide-resistant Raphanus raphanistrum WARR30 (wild radish) expressing ALS Ala122Tyr mutant to GR50 for ALS-herbicide-susceptible Raphanus raphanistrum (wild radish) WARR7. It is filed as functional.
The subject of test [10] is Raphanus raphanistrum. Kind of test: Resistance index, ratio of LD50 for ALS-herbicide-resistant Raphanus raphanistrum WARR30 (wild radish) expressing ALS Ala122Tyr mutant to LD50 for ALS-herbicide-susceptible Raphanus raphanistrum (wild radish) WARR7. It is filed as functional.
For test [11], the system named is Raphanus raphanistrum. Kind of test: Herbicidal activity against two to three-leaf stage ALS-herbicide-resistant Raphanus raphanistrum WARR30 (wild radish) expressing ALS Ala122Tyr mutant assessed as reduction in survival at 1600 g/ha measured 3 weeks after compound treatment. It is filed as functional. The settings on record: WARR30, 504 h, read-out: GI.
The subject of test [12] is Raphanus raphanistrum. Kind of test: Herbicidal activity against two to three-leaf stage ALS-herbicide-susceptible Raphanus raphanistrum WARR7 (wild radish) assessed as reduction in survival at 50 g/ha measured 3 weeks after compound treatment. It is filed as functional, organism-based.
In test [13] the test system is Raphanus raphanistrum. Kind of test: Herbicidal activity against two to three-leaf stage ALS-herbicide-susceptible Raphanus raphanistrum WARR7 (wild radish) assessed as reduction in survival at 0.625 g/ha measured 3 weeks after compound treatment. Conditions: WARR7, 504 h, read-out: GI. It is filed as functional.
The test system of test [14] is Raphanus raphanistrum. As to the kind of experiment: Herbicidal activity against two to three-leaf stage ALS-herbicide-resistant Raphanus raphanistrum WARR30 (wild radish) expressing ALS Ala122Tyr mutant assessed as reduction in survival at 20 g/ha measured 3 weeks after compound treatment. It is filed as functional. The settings on record: WARR30, 504 h, read-out: GI.

In test [15] the test system is Raphanus raphanistrum. As to the kind of experiment: Herbicidal activity against two to three-leaf stage ALS-herbicide-resistant Raphanus raphanistrum WARR30 (wild radish) expressing ALS Ala122Tyr mutant assessed as reduction in survival at 640 g/ha measured 3 weeks after compound treatment. It is filed as functional, organism-based.
In test [16] the test system is Raphanus raphanistrum. As to the kind of experiment: Herbicidal activity against two to three-leaf stage ALS-herbicide-susceptible Raphanus raphanistrum WARR7 (wild radish) assessed as reduction in survival at 0.75 g/ha measured 3 weeks after compound treatment. It is filed as functional. Conditions: WARR7, 504 h, read-out: GI.
Test [17] concerns Raphanus raphanistrum. As to the kind of experiment: Herbicidal activity against two to three-leaf stage ALS-herbicide-resistant Raphanus raphanistrum WARR30 (wild radish) expressing ALS Ala122Tyr mutant assessed as reduction in survival at 384 g/ha measured 3 weeks after compound treatment. It is filed as functional. Conditions: WARR30, 504 h, read-out: GI.

As to `CCc1cnc(C2=NC(C)(C(C)C)C(=O)N2)c(C(=O)O)c1` (centres undefined) [IMAZETHAPYR], the Ratio in the test on Raphanus raphanistrum [1] is > 741. Further, the result with Raphanus raphanistrum [2] and with Raphanus raphanistrum [7] was inactive. For the same compound, the IC50 at Acetolactate synthase [3] is 1.35 µM; at Acetolactate synthase [6], > 1000 µM. The outcome with Raphanus raphanistrum [4] and in the test on Raphanus raphanistrum [5] was Active.
Consider `COCc1cnc(C2=NC(C)(C(C)C)C(=O)N2)c(C(=O)O)c1` (centres undefined) [IMAZAMOX], for which the Ratio in the test with Raphanus raphanistrum [1] is > 21; with Raphanus raphanistrum [9] it was >256; in the test with Raphanus raphanistrum [10] it was >137. The GR50 in the test on Raphanus raphanistrum [2] is on record as >1600 g/ha; with Raphanus raphanistrum [5], <6.3 g/ha. Moreover, in the test with Raphanus raphanistrum [8], the outcome was Active. Also, the IC50 is 4.78 µM at Acetolactate synthase [3] and > 100 µM on Acetolactate synthase [6]. Besides, the LD50 in the test on Raphanus raphanistrum [4] is 11.7 g/ha; in the test on Raphanus raphanistrum [7] it was >1600 g/ha. Moreover, the inhibition of growth at 1600 g/ha with Raphanus raphanistrum [11] turned out to be 20%.
Take `CC(C)C1(C)N=C(c2ncccc2C(=O)O)NC1=O` (centres undefined) [IMAZAPYR]: the results for the Ratio in the test on Raphanus raphanistrum [1], in the test on Raphanus raphanistrum [9] and in the test on Raphanus raphanistrum [10] were > 14.6, >7.8 and >16, respectively. Also, the GR50 was 486 g/ha in the test with Raphanus raphanistrum [2] and <63 g/ha in the test on Raphanus raphanistrum [5]. The IC50 is 6.84 µM on Acetolactate synthase [3] and > 100 µM at Acetolactate synthase [6]. Further, the results for the LD50 in the test on Raphanus raphanistrum [4] and in the test on Raphanus raphanistrum [7] were <63 g/ha and 1000 g/ha, respectively. In the test on Raphanus raphanistrum [12], the outcome was Active.
Turning to `COc1nc(C)nc(NC(=O)NS(=O)(=O)c2ccccc2Cl)n1` [CHLORSULFURON], in the test with Raphanus raphanistrum [13], the inhibition of growth at 0.625 g/ha is 72%. In addition, the figures for the GR50 in the test with Raphanus raphanistrum [2] and in the test with Raphanus raphanistrum [5] were >640 g/ha and <0.625 g/ha, respectively. The inhibition of growth at 20 g/ha in the test with Raphanus raphanistrum [14] was found to be 15%. Also, the values for the LD50 in the test with Raphanus raphanistrum [4] and with Raphanus raphanistrum [7] were <0.625 g/ha and >640 g/ha, respectively. Moreover, the outcome in the test with Raphanus raphanistrum [15] was inactive.
Turning to `Cc1ccn2nc(S(=O)(=O)Nc3c(F)cccc3F)nc2n1`, the Ratio with Raphanus raphanistrum [1] was > 60. For the same compound, the outcome in the test on Raphanus raphanistrum [2] and with Raphanus raphanistrum [7] was inactive. Also, the IC50 on Acetolactate synthase [3] is 1.66 µM; at Acetolactate synthase [6] it was > 100 µM. Besides, the outcome in the test on Raphanus raphanistrum [4] and with Raphanus raphanistrum [5] was Active.
`COc1cc(OC)n2nc(S(=O)(=O)Nc3c(Cl)ccc(C)c3Cl)nc2n1` [METOSULAM]: the Ratio in the test with Raphanus raphanistrum [1] is > 94500; in the test with Raphanus raphanistrum [9] it was >512; in the test on Raphanus raphanistrum [10] it was >512. Further, the GR50 in the test on Raphanus raphanistrum [2] is on record as >384 g/ha; in the test with Raphanus raphanistrum [5], <0.75 g/ha. Also, the results for the IC50 on Acetolactate synthase [3] and on Acetolactate synthase [6] were < 0.001 µM and 94 µM, respectively. The inhibition of growth at 0.75 g/ha in the test on Raphanus raphanistrum [16] is 95%. The LD50 is <0.75 g/ha in the test on Raphanus raphanistrum [4] and >384 g/ha in the test with Raphanus raphanistrum [7]. Besides, in the test with Raphanus raphanistrum [17], the inhibition of growth at 384 g/ha turned out to be 10%.
For the compound `Cc1cc(C)nc(NC(=O)NS(=O)(=O)c2ccccc2C(=O)O)n1` [SULFOMETURON], in the test with Raphanus raphanistrum [1], the Ratio is > 4350. The result with Raphanus raphanistrum [2] and in the test on Raphanus raphanistrum [7] was inactive. The result in the test on Raphanus raphanistrum [4] and in the test with Raphanus raphanistrum [5] was Active. For the same compound, at Acetolactate synthase [6], the IC50 is > 100 µM.
